# Laboratory results: ChEMBL document CHEMBL5052841, “Usp19 inhibitors for use in therapy” (2020)
# Target: T1, Ubiquitin carboxyl-terminal hydrolase 19 (Homo sapiens, UniProt O94966)
# T1 sequence (O94966 whole entry): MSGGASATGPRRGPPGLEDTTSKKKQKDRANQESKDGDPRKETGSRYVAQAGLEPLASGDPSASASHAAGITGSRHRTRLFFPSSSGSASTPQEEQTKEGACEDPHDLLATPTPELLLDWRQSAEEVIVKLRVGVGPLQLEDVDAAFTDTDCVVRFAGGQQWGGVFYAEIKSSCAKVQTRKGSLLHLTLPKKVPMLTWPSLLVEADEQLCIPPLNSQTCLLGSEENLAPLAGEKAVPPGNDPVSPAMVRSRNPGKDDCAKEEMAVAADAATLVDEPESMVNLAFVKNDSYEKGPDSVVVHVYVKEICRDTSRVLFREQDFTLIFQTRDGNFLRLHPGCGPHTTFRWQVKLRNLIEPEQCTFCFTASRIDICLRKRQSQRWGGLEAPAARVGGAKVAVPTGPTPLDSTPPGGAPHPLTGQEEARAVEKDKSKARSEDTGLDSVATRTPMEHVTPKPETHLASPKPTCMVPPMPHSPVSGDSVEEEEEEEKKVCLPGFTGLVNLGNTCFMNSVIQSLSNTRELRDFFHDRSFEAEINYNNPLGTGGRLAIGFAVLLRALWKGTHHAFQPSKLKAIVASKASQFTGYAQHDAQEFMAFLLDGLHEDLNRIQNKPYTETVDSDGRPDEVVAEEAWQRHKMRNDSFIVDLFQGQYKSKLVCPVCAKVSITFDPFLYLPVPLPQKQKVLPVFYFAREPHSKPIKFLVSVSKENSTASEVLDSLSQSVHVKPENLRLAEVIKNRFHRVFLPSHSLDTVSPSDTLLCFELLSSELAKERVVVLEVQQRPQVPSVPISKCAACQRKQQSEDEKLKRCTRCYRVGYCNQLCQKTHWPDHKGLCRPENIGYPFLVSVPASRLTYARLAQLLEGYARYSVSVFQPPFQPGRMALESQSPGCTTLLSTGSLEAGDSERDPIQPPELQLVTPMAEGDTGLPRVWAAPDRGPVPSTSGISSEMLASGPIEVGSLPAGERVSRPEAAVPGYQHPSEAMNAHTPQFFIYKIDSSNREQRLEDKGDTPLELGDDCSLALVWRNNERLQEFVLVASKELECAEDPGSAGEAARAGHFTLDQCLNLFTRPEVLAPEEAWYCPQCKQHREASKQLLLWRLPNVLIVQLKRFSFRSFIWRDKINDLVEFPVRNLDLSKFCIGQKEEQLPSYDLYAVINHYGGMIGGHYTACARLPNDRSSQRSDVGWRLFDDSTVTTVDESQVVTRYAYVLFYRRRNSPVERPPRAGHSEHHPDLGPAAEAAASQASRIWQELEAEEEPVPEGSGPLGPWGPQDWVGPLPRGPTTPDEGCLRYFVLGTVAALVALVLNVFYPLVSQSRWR
# Experiment: Inhibition of C-terminal His6-tagged recombinant human USP19 using iso-peptide ubiquitin-Lys-TAMRA as substrate incubated for 30 mins and measured after 90 mins by fluorescent polarization assay
row,SMILES,IC50 [nM]
1,C[C@H](CC1CCCCC1)C(=O)N1CC[C@@](O)(Cn2cc(C(=O)O)c(-c3ccccc3)cc2=O)C2(CCCC2)C1,< 500
2,O=C(C(F)CC1CCCCC1)N1CCC(O)(Cn2cnc(-c3ccccc3F)cc2=O)CC1 (racemic),≥ 50000
3,C[C@H](CC1CCCCC1)C(=O)N1CCC(O)(Cn2cnc(-c3ccccc3F)cc2=O)C2(CCCC2)C1 (some centres undefined),< 500
4,C[C@H](CC(F)(F)F)C(=O)N1CC[C@@](O)(Cn2cnc(-c3ccccc3F)cc2=O)C2(CCCC2)C1,< 500
5,CC(C)CC(C)C(=O)N1CCC(O)(Cn2cc(C(=O)N(C)C)c(-c3ccccc3)cc2=O)C2(CCCC2)C1 (centres undefined),< 500
6,C[C@H](CC1CCCCC1)C(=O)N1CCC(O)(Cn2cc(C(=O)N(C)C)c(-c3ccsc3)cc2=O)C2(CCCC2)C1 (some centres undefined),< 500
7,C[C@H](CC1CCC1)C(=O)N1CC[C@@](O)(Cn2cc(C(=O)N3CCNCC3)c(-c3ccccc3)cc2=O)C2(CCCC2)C1,< 500
8,CC(OC1CCCCC1)C(=O)N1CCC(O)(Cn2cnc(-c3ccccc3F)cc2=O)C(C)(C)C1 (centres undefined),≥ 50000
9,CC(Cc1ccccc1)C(=O)N1CCC(O)(Cn2cnc(-c3ccccc3F)cc2=O)CC1 (racemic),≥ 5000
10,C[C@H](CC1CCCCC1)C(=O)N1CCC(O)(Cn2cc(C(=O)N(C)C)c(-c3ccccc3)cc2=O)C2(CCCCC2)C1 (some centres undefined),< 500
11,CN(C)C(=O)c1cn(C[C@]2(O)CCN(C(=O)[C@H](CCO)CC3CCCCC3)CC2(C)C)c(=O)cc1-c1ccccc1,< 500
12,C[C@H](CC1CCCCC1)C(=O)N1CCC(O)(Cn2cnc(-c3cccc(CO)c3)cc2=O)C(C)(C)C1 (some centres undefined),< 500
13,C[C@H](CC(C)(F)F)C(=O)N1CC[C@@](O)(Cn2cnc(-c3ccccc3)cc2=O)C2(CCCC2)C1,< 500
14,O=C(CCC1CCCC1)N1CCC(O)(Cn2cnc(-c3ccccc3F)cc2=O)CC1,≥ 50000
15,C[C@H](CC1CCCCC1)C(=O)N1CCC(O)(Cn2cc(C(=O)N(C)C)c(-c3cccc(CO)c3)cc2=O)C2(CCCC2)C1 (some centres undefined),< 500
16,C[C@H](CC1CCCCC1)C(=O)N1CCC(O)(Cn2cnc(-c3ccc(CO)cc3)cc2=O)C(C)(C)C1 (some centres undefined),< 500
17,C[C@H](CC1CCCCC1)C(=O)N1CCC(O)(Cn2cnc(-c3ccsc3)cc2=O)C(C)(C)C1 (some centres undefined),< 500
18,C[C@H](CC1CCCCC1)C(=O)N1CC[C@@](O)(Cn2cc(C(=O)N3CCNCC3)c(-c3ccccc3F)cc2=O)C(C)(C)C1,< 500
19,C[C@H](CC1CCCCC1)C(=O)N1CC[C@@](O)(Cn2cc(C(=O)N(C)C)c(-c3ccccc3F)cc2=O)C2(CCCC2)C1,< 500
20,C[C@H](CC1CCCCC1)C(=O)N1CCC(O)(Cn2cnc(-c3ccccc3)cc2=O)C(C)(C)C1 (some centres undefined),< 500
21,C[C@H](CC1CCCCC1)C(=O)N1CC[C@@](O)(Cn2cc(C(=O)N3CCN(C)CC3)c(-c3ccccc3)cc2=O)C2(CCCC2)C1,< 500
22,O=C([C@@H]1CCNC[C@H]1c1ccccc1)N1CCC(O)(Cn2cnc(-c3ccccc3)cc2=O)C2(CCCC2)C1 (some centres undefined),< 500
23,CC(=O)N1CCN(C(=O)c2cn(CC3(O)CCN(C(=O)[C@H](C)CC4CCCCC4)CC3(C)C)c(=O)cc2-c2ccccc2)CC1 (some centres undefined),< 500
24,CC(C)N(C)C(=O)c1cn(C[C@]2(O)CCN(C(=O)[C@H](C)CC3CCCCC3)CC2(C)C)c(=O)cc1-c1ccccc1,< 500
25,C[C@H](CC1CCCCC1)C(=O)N1CCC(O)(Cn2cc(C(=O)N(C)C)c(Cl)cc2=O)C2(CCCC2)C1 (some centres undefined),< 500
26,O=C(C1CNCC1c1ccccc1)N1CC[C@@](O)(Cn2cnc(-c3ccccc3)cc2=O)C2(CCCC2)C1 (some centres undefined),< 500
27,CCOC(=O)c1cn(C[C@]2(O)CCN(C(=O)[C@H](C)CC3CCCCC3)CC23CCCC3)c(=O)cc1-c1ccccc1,< 500

row,SMILES,IC50 [nM]
1,C[C@H](CC(F)(F)F)C(=O)N1CC[C@@](O)(Cn2cc(C(=O)N(C)C)c(-c3ccccc3)cc2=O)C2(CCCC2)C1,< 500
2,C[C@H](CC1CCCCC1)C(=O)N1CC[C@@](O)(Cn2cc(C(=O)N(C)C)c(C3CC3)cc2=O)C2(CCCC2)C1,< 500
3,O=C(c1cn(C[C@]2(O)CCN(C(=O)[C@H](CO)CC(F)(F)F)CC23CCCC3)c(=O)cc1-c1ccccc1)N1CCOCC1,< 500
4,C[C@H](CC1CC1)C(=O)N1CCC(O)(Cn2cc(C(=O)N(C)C)c(-c3ccccc3)cc2=O)C2(CCCC2)C1 (some centres undefined),< 500
5,CN(C)C(=O)c1cn(CC2(O)CCN(C(=O)C(O)CC3CCCCC3)CC23CCCC3)c(=O)cc1-c1ccccc1 (centres undefined),< 500
6,O=C(CCC1CCC1)N1CCC(O)(Cn2cnc(-c3ccccc3F)cc2=O)CC1,≥ 50000
7,C[C@H](CC(F)(F)F)C(=O)N1CC[C@@](O)(Cn2cnc(-c3cccc(F)c3)cc2=O)C2(CCCC2)C1,< 500
8,O=C(C1CCNC1c1ccccc1)N1CC[C@@](O)(Cn2cnc(-c3ccccc3)cc2=O)C2(CCCC2)C1 (some centres undefined),< 500
9,C[C@H](CC1CCCCC1)C(=O)N1CC[C@@](O)(Cn2cc(C(=O)N(C)C)c(-c3ccccc3F)cc2=O)C(C)(C)C1,< 500
10,O=C(c1cn(C[C@]2(O)CCN(C(=O)C(CC(F)(F)F)CC(F)(F)F)CC23CCCC3)c(=O)cc1-c1ccccc1)N1CCNCC1,≤ 5000
11,CN(C)C(=O)c1cn(C[C@]2(O)CCN(C(=O)[C@H](CO)CC3CCC3)CC2(C)C)c(=O)cc1-c1ccccc1,< 500
12,C[C@H](CC(F)(F)F)C(=O)N1CC[C@@](O)(Cn2cc(C(=O)N3CCNCC3)c(-c3ccccc3)cc2=O)C2(CCCC2)C1,< 500
13,C[C@H](CC1CCCCC1)C(=O)N1CC[C@@](O)(Cn2cc(C(=O)N(C)C)c(-c3ccccc3)cc2=O)C2(CCCC2)C1,< 500
14,C[C@H](CC1CCCCC1)C(=O)N1CC[C@@](O)(Cn2cc(C(=O)N3CCNCC3)c(C3CC3)cc2=O)C2(CCCC2)C1,< 500
15,C[C@H](CC1CCCCC1)C(=O)N1CCC(O)(Cn2cc(C(=O)N(C)C)c(-c3ccc(CO)cc3)cc2=O)C2(CCCC2)C1 (some centres undefined),< 500
16,C[C@H](CC1CCC1)C(=O)N1CC[C@@](O)(Cn2cc(C(=O)N3CCNCC3)c(-c3ccccc3F)cc2=O)C2(CCCC2)C1,< 500
17,C[C@H](CC1CCCCC1)C(=O)N1CCC(O)(Cn2cc(C(=O)N3CCN(C)CC3)c(-c3ccccc3)cc2=O)C(C)(C)C1 (some centres undefined),< 500
18,C[C@H](CC1CCCCC1)C(=O)N1CC[C@@](O)(Cn2cc(C(=O)N3CCNC[C@H]3CO)c(-c3ccccc3)cc2=O)C(C)(C)C1,< 500
19,C[C@H](CC1CCCCC1)C(=O)N1CC[C@@](O)(Cn2cc(C(=O)N(C)C)c(-c3ccccc3)cc2=O)C(C)(C)C1,< 500
20,C[C@H](CC1CCCCC1)C(=O)N1CCC(O)(Cn2cc(C(=O)N(C)C)c(N(C)C)cc2=O)C2(CCCC2)C1 (some centres undefined),< 500
21,CN(C)C(=O)c1cn(C[C@]2(O)CCN(C(=O)[C@H](CO)CC3CCCCC3)CC2(C)C)c(=O)cc1-c1ccccc1,< 500
22,C[C@H](CC1CCCCC1)C(=O)N1CCC(O)(Cn2cnc(-c3ccccc3CN)cc2=O)C(C)(C)C1 (some centres undefined),< 500
23,C[C@H](CC(F)(F)F)C(=O)N1CC[C@@](O)(Cn2cc(C(=O)N3CCN(C)CC3)c(-c3ccccc3)cc2=O)C2(CCCC2)C1,< 500
24,CC(CN1CCCCC1)C(=O)N1CCC(O)(Cn2cc(C(=O)N(C)C)c(-c3ccccc3)cc2=O)C2(CCCC2)C1 (centres undefined),≥ 5000
25,C[C@@H]1CN(C(=O)c2cn(C[C@]3(O)CCN(C(=O)[C@H](C)CC4CCCCC4)CC3(C)C)c(=O)cc2-c2ccccc2)CCN1,< 500
26,CC(n1cnc(-c2ccccc2)cc1=O)C1(O)CCN(C(=O)[C@H](C)CC2CCCCC2)CC1 (some centres undefined),≤ 5000
27,C[C@H](CC1CCCCC1)C(=O)N1CCC(O)(Cn2cc(C(=O)N3CCNCC3)c(-c3ccccc3)cc2=O)C2(CCCCC2)C1 (some centres undefined),< 500
